pIC50: −log10 of the molar value. Like-named read-outs stand apart in the source and are kept apart here.
Assays:
[1] = system: β 2c/2i (trypsin-like); assay: Cell-Based Proteasome subunit activity/selectivity assay, β2c/2i, substrate (KQL)2Rh110; conditions: Ramos cells; substrate (KQL)2Rh110 (β2c/2i); highest concentration tested 20 μM
Source text: (§1) Cell-Based Proteasome Activity/Selectivity Assay
(§2) The Cell-Based Proteasome subunit activity/selectivity assay was a panel of 5 fluorogenic assays that independently measured the activity of β5c or β 5i (chymotrypsin-like activity), β 2c/2i (trypsin-like), and β 1c or β 1i (caspase-like) protease activity associated with the proteasome complex in cultured cells. Specifically, the following substrates were used for respective subunit activities: β 1i (PAL)2Rh110, β 1c: (LLE)2 Rh110, β 2c/2i: (KQL)2Rh110, β 5c: (WLA)2Rh110, β 5i: (ANW)2Rh110. The following procedure was followed:
(§3) Added 0.5 μl of 100× 4-fold serial diluted test compounds or DMSO to each well. Highest concentration of compound tested was 20 μM, thus compound serial dilution started from […]. Incubated for 30 minutes at 37° C. Then equilibrated at room temperature for 15 minutes. […] Shaked for one minute @ 700 rpm. Incubated for 120 min at room temperature. Then read the plates with an Envision multilabel plate reader (PerkinElmer) with 500 nm excitation/519 nm emission.

[2] = molecular target: T1, β 1c (caspase-like) (Homo sapiens, UniProt P28072+Q99436); assay: Cell-Based Proteasome subunit activity/selectivity assay, β1c, substrate (LLE)2Rh110
T1 construct: protease activity associated with the proteasome complex in cultured cells; endogenous in cells; host or cells: Ramos cells
Source text: as §1, §2, §3

[3] = molecular target: T2, β5c (chymotrypsin-like activity) (Homo sapiens, UniProt P20618+P28074); assay: Cell-Based Proteasome subunit activity/selectivity assay, β5c, substrate (WLA)2Rh110
T2 construct: protease activity associated with the proteasome complex in cultured cells; endogenous in cells; host or cells: Ramos cells
Source text: as §1, §2, §3

[4] = molecular target: T3, β 1i (caspase-like) (Homo sapiens, UniProt P28065+P40306); assay: Cell-Based Proteasome subunit activity/selectivity assay, β1i, substrate (PAL)2Rh110
T3 construct: protease activity associated with the proteasome complex in cultured cells; endogenous in cells; host or cells: Ramos cells
Source text: as §1, §2, §3

[5] = molecular target: T4, β 5i (chymotrypsin-like activity) (Homo sapiens, UniProt P20618+P28062); assay: Cell-Based Proteasome subunit activity/selectivity assay, β5i, substrate (ANW)2Rh110; conditions: Ramos cells; substrate (ANW)2Rh110 (β5i); highest concentration tested 20 μM; read-out: Ic50:ramos:ac-(anw)2-r110
T4 construct: protease activity associated with the proteasome complex in cultured cells; endogenous in cells; host or cells: Ramos cells
Source text: as §1, §2, §3

[6] = Ramos cells, substrate (LLE)2Rh110 (β1c), highest concentration tested 20 μM, read-out: Ic50:ramos:rh110-(lle)2
[7] = Ramos cells, substrate (WLA)2Rh110 (β5c), highest concentration tested 20 μM, read-out: Ic50:ramos:rh110-(wla)2
[8] = Ramos cells, substrate (PAL)2Rh110 (β1i), highest concentration tested 20 μM, read-out: Ic50:ramos:rh110-(pal)2

For `CCc1ccc(C(C#N)NC(=O)c2cn(CCNC(=O)c3ccc(OC)nc3OC)nn2)cc1` (stereo not shown) [Example 35, N-[2-(4-{[Cyano-(4-ethyl-phenyl)-methyl]-carbamoyl}-[1,2,3]triazol-1-yl)-ethyl]-2,6-dimethoxy-nicotinamide], the pIC50 [1] was ≤ 4.70, the pIC50 [2, 6] was ≤ 4.70 and the pIC50 [3, 7] was 5.26. For the same molecule, the pIC50 [4, 8] was ≤ 4.70 and the pIC50 [5] was 6.31.
With `CCc1ccc(C(C#N)NC(=O)c2cn(CCNC(=O)c3ccc(F)cc3OC)nn2)cc1` (stereo not shown) [Example 36, 1-[2-(4-Fluoro-2-methoxy-benzoylamino)-ethyl]-1H-[1,2,3]triazole-4-carboxylic acid [cyano-(4-ethyl-phenyl)-methyl]-amide] the pIC50 [1] was ≤ 4.70, the pIC50 [2, 6] was ≤ 4.70 and the pIC50 [3, 7] was ≤ 4.70. The pIC50 [4, 8] was ≤ 4.70 and the pIC50 [5] was 5.69.
`CCc1ccc(C(C#N)NC(=O)c2cn(CCNC(=O)c3cc(C(F)(F)F)ccc3F)nn2)cc1` (stereo not shown) [Example 37, 1-[2-(2-Fluoro-5-trifluoromethyl-benzoylamino)-ethyl]-1H-[1,2,3]triazole-4-carboxylic acid [cyano-(4-ethyl-phenyl)-methyl]-amide] was tested, and the pIC50 [1] was ≤ 4.70, the pIC50 [2, 6] was ≤ 4.70 and the pIC50 [3, 7] was ≤ 4.70. The pIC50 [4, 8] was ≤ 4.70 and the pIC50 [5] was 7.15.
In the case of `CCc1ccc(C(C#N)NC(=O)c2cn(CCNC(=O)c3ccc(C(F)(F)F)cc3F)nn2)cc1` (stereo not shown) [Example 38, 1-[2-(2-Fluoro-4-trifluoromethyl-benzoylamino)-ethyl]-1H-[1,2,3]triazole-4-carboxylic acid [cyano-(4-ethyl-phenyl)-methyl]-amide], the pIC50 [1] was ≤ 4.70, the pIC50 [2, 6] was ≤ 4.70 and the pIC50 [3, 7] was ≤ 4.70. For the same molecule, the pIC50 [4, 8] was ≤ 4.70 and the pIC50 [5] was 7.77.
`CCc1ccc(C(C#N)NC(=O)c2cn(CCNC(=O)c3ccc(S(C)(=O)=O)cc3Cl)nn2)cc1` (stereo not shown) [Example 41, 1-[2-(2-Chloro-4-methanesulfonyl-benzoylamino)-ethyl]-1H-[1,2,3]triazole-4-carboxylic acid [cyano-(4-ethyl-phenyl)-methyl]-amide] was tested, and the pIC50 [1] was ≤ 4.70, the pIC50 [2, 6] was ≤ 4.70 and the pIC50 [3, 7] was ≤ 4.70. The pIC50 [4, 8] was ≤ 4.70 and the pIC50 [5] was 6.55.
In the case of `CCc1ccc(C(C#N)NC(=O)c2cn(CCNC(=O)c3cc(S(C)(=O)=O)ccc3OC)nn2)cc1` (stereo not shown) [Example 42, 1-[2-(5-Methanesulfonyl-2-methoxy-benzoylamino)-ethyl]-1H-[1,2,3]triazole-4-carboxylic acid [cyano-(4-ethyl-phenyl)-methyl]-amide], the pIC50 [1] was ≤ 4.70, the pIC50 [2, 6] was ≤ 4.70 and the pIC50 [3, 7] was ≤ 4.70. For the same molecule, the pIC50 [4, 8] was ≤ 4.70 and the pIC50 [5] was 5.50.
`CCc1ccc(C(C#N)NC(=O)c2cn(CCNC(=O)c3ccc(Oc4ccc(Cl)cc4)cn3)nn2)cc1` (stereo not shown) [Example 43, 5-(4-Chloro-phenoxy)-pyridine-2-carboxylic acid [2-(4-{[cyano-(4-ethyl-phenyl)-methyl]-carbamoyl}-[1,2,3]triazol-1-yl)-ethyl]-amide] was tested, and the pIC50 [1] was ≤ 4.70, the pIC50 [2, 6] was ≤ 4.70 and the pIC50 [3, 7] was 5.21. For the same molecule, the pIC50 [4, 8] was ≤ 4.70 and the pIC50 [5] was 5.84.
In the case of `CCc1ccc(C(C#N)NC(=O)c2cn(CCNC(=O)c3ccc(Cl)cn3)nn2)cc1` (stereo not shown) [Example 44, 5-Chloro-pyridine-2-carboxylic acid [2-(4-{[cyano-(4-ethyl-phenyl)-methyl]-carbamoyl}-[1,2,3]triazol-1-yl)-ethyl]-amide], the pIC50 [1] was ≤ 4.70, the pIC50 [2, 6] was ≤ 4.70 and the pIC50 [3, 7] was ≤ 4.70. The pIC50 [4, 8] was ≤ 4.70 and the pIC50 [5] was 5.53.
With `CCc1ccc(C(C#N)NC(=O)c2cn(CCNC(=O)c3ccc(C(F)(F)F)cn3)nn2)cc1` (stereo not shown) [Example 45, 5-Trifluoromethyl-pyridine-2-carboxylic acid [2-(4-{[cyano-(4-ethyl-phenyl)-methyl]-carbamoyl}-[1,2,3]triazol-1-yl)-ethyl]-amide] the pIC50 [1] was ≤ 4.70, the pIC50 [2, 6] was ≤ 4.70 and the pIC50 [3, 7] was ≤ 4.70. The pIC50 [4, 8] was ≤ 4.70 and the pIC50 [5] was 5.95.
For `CCc1ccc(C(C#N)NC(=O)c2cn(CCN3Cc4ccccc4C3=O)nn2)cc1` (stereo not shown) [Example 46, 1-[2-(1-Oxo-1,3-dihydro-isoindol-2-yl)-ethyl]-1H-[1,2,3]triazole-4-carboxylic acid [cyano-(4-ethyl-phenyl)-methyl]-amide], the pIC50 [1] was ≤ 4.70, the pIC50 [2, 6] was ≤ 4.70 and the pIC50 [3, 7] was 4.79. The pIC50 [4, 8] was ≤ 4.70 and the pIC50 [5] was 5.23.
In the case of `CCc1ccc(C(C#N)NC(=O)c2cn(CCN3Cc4cc(OC)ccc4C3=O)nn2)cc1` (stereo not shown) [Example 47, 1-[2-(5-Methoxy-1-oxo-1,3-dihydro-isoindol-2-yl)-ethyl]-1H-[1,2,3]triazole-4-carboxylic acid [cyano-(4-ethyl-phenyl)-methyl]-amide], the pIC50 [1] was ≤ 4.70, the pIC50 [2, 6] was ≤ 4.70 and the pIC50 [3, 7] was 5.12. For the same molecule, the pIC50 [4, 8] was ≤ 4.70 and the pIC50 [5] was 5.83.
In the case of `COc1cccc(C(C#N)NC(=O)c2cn(CCNC(=O)c3ccc(OC)c(OC)c3OC)nn2)c1` (stereo not shown) [Example 52, 1-[2-(2,3,4-Trimethoxy-benzoylamino)-ethyl]-1H-[1,2,3]triazole-4-carboxylic acid [cyano-(3-methoxy-phenyl)-methyl]-amide], the pIC50 [1] was ≤ 4.70, the pIC50 [2, 6] was ≤ 4.70 and the pIC50 [3, 7] was ≤ 4.70. The pIC50 [4, 8] was ≤ 4.70 and the pIC50 [5] was 5.57.
With `COc1ccc(C(=O)NCCn2cc(C(=O)NC(C#N)c3ccc4c(c3)OCO4)nn2)c(OC)c1OC` (stereo not shown) [Example 53, 1-[2-(2,3,4-Trimethoxy-benzoylamino)-ethyl]-1H-[1,2,3]triazole-4-carboxylic acid (benzo[1,3]dioxol-5-yl-cyano-methyl)-amide] the pIC50 [1] was ≤ 4.70, the pIC50 [2, 6] was ≤ 4.70 and the pIC50 [3, 7] was ≤ 4.70. For the same molecule, the pIC50 [4, 8] was ≤ 4.70 and the pIC50 [5] was 6.23.
With `COc1ccc(C(=O)NCCn2cc(C(=O)NC(C#N)c3ccc(Br)cc3)nn2)c(OC)c1OC` (stereo not shown) [Example 54, 1-[2-(2,3,4-Trimethoxy-benzoylamino)-ethyl]-1H-[1,2,3]triazole-4-carboxylic acid [(4-bromo-phenyl)-cyano-methyl]-amide] the pIC50 [1] was ≤ 4.70, the pIC50 [2, 6] was ≤ 4.70 and the pIC50 [3, 7] was ≤ 4.70. The pIC50 [4, 8] was ≤ 4.70 and the pIC50 [5] was 7.00.
With `COc1ccc(C(=O)NCCn2cc(C(=O)NC(C#N)c3cccc(SC)c3)nn2)c(OC)c1OC` (stereo not shown) [Example 55, 1-[2-(2,3,4-Trimethoxy-benzoylamino)-ethyl]-1H-[1,2,3]triazole-4-carboxylic acid [cyano-(3-methylsulfanyl-phenyl)-methyl]-amide] the pIC50 [1] was ≤ 4.70, the pIC50 [2, 6] was ≤ 4.70 and the pIC50 [3, 7] was ≤ 4.70. For the same molecule, the pIC50 [4, 8] was ≤ 4.70 and the pIC50 [5] was 5.40.
`COc1ccc(C(=O)NCCn2cc(C(=O)NC(C#N)c3ccc(OCc4ccccc4)cc3)nn2)c(OC)c1OC` (stereo not shown) [Example 56, 1-[2-(2,3,4-Trimethoxy-benzoylamino)-ethyl]-1H-[1,2,3]triazole-4-carboxylic acid [(4-benzyloxy-phenyl)-cyano-methyl]-amide] was tested, and the pIC50 [1] was ≤ 4.70, the pIC50 [2, 6] was 4.72 and the pIC50 [3, 7] was 5.08. The pIC50 [4, 8] was ≤ 4.70 and the pIC50 [5] was 5.25.
`COc1ccc(C(=O)NCCn2cc(C(=O)NC(C#N)c3cccc4ccccc34)nn2)c(OC)c1OC` (stereo not shown) [Example 57, 1-[2-(2,3,4-Trimethoxy-benzoylamino)-ethyl]-1H-[1,2,3]triazole-4-carboxylic acid (cyano-naphthalen-1-yl-methyl)-amide] was tested, and the pIC50 [1] was ≤ 4.70, the pIC50 [2] was ≤ 4.70 and the pIC50 [3] was ≤ 4.70. For the same molecule, the pIC50 [4] was ≤ 4.70 and the pIC50 [5] was 5.19.
With `COc1ccc(C(=O)NCCn2cc(C(=O)NC(C#N)c3ccccc3Br)nn2)c(OC)c1OC` (stereo not shown) [Example 59, 1-[2-(2,3,4-Trimethoxy-benzoylamino)-ethyl]-1H-[1,2,3]triazole-4-carboxylic acid [(2-bromo-phenyl)-cyano-methyl]-amide] the pIC50 [1] was ≤ 4.70, the pIC50 [2, 6] was ≤ 4.70 and the pIC50 [3, 7] was ≤ 4.70. For the same molecule, the pIC50 [4, 8] was ≤ 4.70 and the pIC50 [5] was 5.25.
In the case of `COc1ccc(C(=O)NCCn2cc(C(=O)NC(C#N)c3ccc(C(F)(F)F)cc3)nn2)c(OC)c1OC` (stereo not shown) [Example 60, 1-[2-(2,3,4-Trimethoxy-benzoylamino)-ethyl]-1H-[1,2,3]triazole-4-carboxylic acid [cyano-(4-trifluoromethyl-phenyl)-methyl]-amide], the pIC50 [1] was ≤ 4.70, the pIC50 [2, 6] was ≤ 4.70 and the pIC50 [3, 7] was ≤ 4.70. The pIC50 [4, 8] was ≤ 4.70 and the pIC50 [5] was 6.21.
For `COc1ccc(C(=O)NCCn2cc(C(=O)NC(C#N)c3ccc(C(C)C)cc3)nn2)c(OC)c1OC` (stereo not shown) [Example 61, 1-[2-(2,3,4-Trimethoxy-benzoylamino)-ethyl]-1H-[1,2,3]triazole-4-carboxylic acid [cyano-(4-isopropyl-phenyl)-methyl]-amide], the pIC50 [1] was ≤ 4.70, the pIC50 [2, 6] was 4.77 and the pIC50 [3, 7] was ≤ 4.70. The pIC50 [4, 8] was ≤ 4.70 and the pIC50 [5] was 5.88.
